Reference: patent US7273846B2, “Selective melanin-concentrating hormone type-1 receptor agonists” (priority 2002, dated 2007)
Residues, ends and D or L forms follow the SMILES beside them.

Columns and labels:
MCH-1R [1] = target: T1, MCH-1R (Homo sapiens, UniProt Q99705); experiment: Aequorin bioluminescence functional assay, 293AEQ17/MCH-1R cells; assay type: cell-based; design: expressed in transfected cells; conditions: for MCH-1R Activation %: human MCH = 100, activation at 10 μM concentration; for fold lower agonist activity at hMCH-1R: relative to Ac-hMCH(6-16)-NH2; for EC50: aequorin, 293AEQ17/MCH-1R cells, read-out: MCH-1R EC50
Description: (§1) The aequorin bioluminescence assay is a reliable test for identifying G-protein-coupled receptors that couple through the G protein subunit family consisting of Gq and G11. Gq and G11 coupling leads to the activation of phospholipase C, mobilization of intracellular calcium, and activation of protein kinase C.
Stable cell lines expressing either the MCH-1R or the MCH-2R and the aequorin reporter protein were used. The assay was performed using a Luminoskan RT luminometer (Labsystems Inc., Gaithersburg, Md.) controlled by custom software written for a Macintosh PowerPC 6100.
(§2) The cells were harvested, washed once in ECB medium, and resuspended to 500,000 cells/mL. 100 μL of cell suspension (corresponding to 5×10^4 cells) was then injected into the test plate containing the hMCH peptides, and the integrated light emission was recorded over 30 seconds, in 0.5-s units. 20 μL of lysis buffer (0.1% final Triton X-100 concentration) was then injected and the integrated light emission recorded over 10 seconds, in 0.5-s units. The “fractional response” values for each well were calculated by taking the ratio of the integrated response to the initial challenge to the total integrated luminescence including the Triton X-100 lysis response.

MCH-2R [2] = target: T2, MCH-2R (Homo sapiens, UniProt Q969V1); experiment: Radioligand binding assay (SPA), MCH-2R; conditions: for IC50: MCH-2R IC50, [125I]-[Phe13,Tyr19]-hMCH SPA, COS or CHO MCH-2R membranes
Description: (§3) For transient expression, COS-7 cells were cultured in Dulbecco's modified Eagle medium (Gibco BRL, Rockville, Md.) with 10% heat inactivated fetal calf serum.
(§4) A suspension of 7×10^6 COS-7 cells were transfected with 20 μg of pCI-neo/MCH-2R plasmid by electroporation and cells were harvested after 60-72 hours. Membranes were prepared from transient and stable transfectants by hypotonic lysis, frozen in liquid nitrogen, and stored at −80° C.
(§5) Assays were optimized with respect to membrane preparations: for CHO/MCH-1R membranes, 1 μg of membranes per well yielded a>6× specific binding window and for COS or CHO MCH-2R membranes, 8 μg of membrane protein yielded a window of about 3×.
(§6) Specific binding is defined as the difference between total binding and non-specific binding conducted in the presence of 500 nM unlabeled hMCH. […] After equilibrating at room temperature for 3 hours, the plates were read in a TopCount (Packard, Meriden, Conn.). IC50 calculations were performed using Prism 3.0 (GraphPad. Software, San Diego, Calif.). The IC50 values were measured in three different experiments.

MCH-2R [3] = target: T2, MCH-2R; experiment: Aequorin bioluminescence functional assay, 293AEQ17/MCH-2R cells; assay type: cell-based; design: expressed in transfected cells; MCH-2R Activation %: concentration or dose not given beside the values; conditions: for EC50: aequorin, 293AEQ17/MCH-2R cells; for MCH-2R Activation %: human MCH = 100
From the text: as §1
Stable cell lines expressing either the MCH-1R or the MCH-2R and the aequorin reporter protein were used.
as §2

MCH-1R [4] = target: T1, MCH-1R; experiment: biochemical
Description: as §3, §4, §5, §6

MCH-1R [5] = target: T1, MCH-1R
Description: as §3, §4, §5, §6

T2 sequence (Q969V1 whole entry): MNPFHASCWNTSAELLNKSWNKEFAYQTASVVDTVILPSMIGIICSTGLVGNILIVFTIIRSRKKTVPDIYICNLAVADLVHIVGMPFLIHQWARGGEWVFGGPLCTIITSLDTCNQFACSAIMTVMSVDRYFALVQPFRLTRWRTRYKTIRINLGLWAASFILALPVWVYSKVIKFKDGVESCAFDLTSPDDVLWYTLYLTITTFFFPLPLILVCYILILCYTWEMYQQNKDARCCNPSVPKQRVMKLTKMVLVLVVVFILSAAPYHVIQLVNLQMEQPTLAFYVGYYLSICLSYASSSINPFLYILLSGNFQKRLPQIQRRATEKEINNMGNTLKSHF
T1 sequence (Q99705 whole entry): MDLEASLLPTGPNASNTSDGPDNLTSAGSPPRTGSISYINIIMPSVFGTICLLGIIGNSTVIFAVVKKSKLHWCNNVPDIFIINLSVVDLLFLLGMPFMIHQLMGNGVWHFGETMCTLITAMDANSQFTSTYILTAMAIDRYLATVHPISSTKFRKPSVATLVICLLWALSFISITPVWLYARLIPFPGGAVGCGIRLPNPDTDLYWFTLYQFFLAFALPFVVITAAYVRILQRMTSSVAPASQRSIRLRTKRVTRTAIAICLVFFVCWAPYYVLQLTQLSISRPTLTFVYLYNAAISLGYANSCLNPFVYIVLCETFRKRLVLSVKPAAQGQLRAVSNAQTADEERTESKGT

SMILES	Selectivity 2/1 (MCH-2R/MCH-1R EC50 activity ratio) (MCH-1R [1])	MCH-1R Activation % (MCH-1R [1]) [%]	fold weaker binding at hMCH-2R (MCH-2R [2]; relative to Ac-hMCH(6-16)-NH2)	EC50 (MCH-2R [3]) [nM]	MCH-2R Activation % (MCH-2R [3]) [%]	IC50 (MCH-1R [4]) [nM]	binding to hMCH-1R in words (MCH-1R [5])	Selectivity 2/1 (MCH-2R/MCH-1R IC50 binding ratio) (MCH-1R [5])	fold lower agonist activity at hMCH-1R (MCH-1R [1]) [fold]	binding to hMCH-2R in words (MCH-2R [2])	IC50 (MCH-2R [2]) [nM]	fold lower binding affinity at hMCH-1R (MCH-1R [5]; relative to Ac-hMCH(6-16)-NH2)	agonism at hMCH-1R in words (MCH-1R [1])	agonism at hMCH-2R in words (MCH-2R [3])	EC50 (MCH-1R [1]) [nM]	fold lower agonist potency at hMCH-2R (MCH-2R [3]; relative to Ac-hMCH(6-16)-NH2) [fold]	fold more selective as agonist for hMCH-1R than hMCH-2R (MCH-1R [1])
CSCC[C@@H]1NC(=O)[C@@H](NC(=O)[C@H](N)CCCNC(=N)N)CSSC[C@@H](C(N)=O)NC(=O)[C@@H]2CCCN2C(=O)[C@H](CCCNC(=N)N)NC(=O)[C@H](Cc2ccc(O)cc2)NC(=O)[C@H](C(C)C)NC(=O)[C@H](CCCNC(=N)N)NC(=O)CNC(=O)[C@H](CC(C)C)NC1=O [SEQ. ID. NO. 4]	0.5	130	more than 10 fold	55	83	35	equipotent to Ac-hMCH(6-16)-NH2	130									
CSCC[C@@H]1NC(=O)[C@@H](NC(=O)[C@@H](CCCCN)NC(C)=O)CSSC[C@@H](C(N)=O)NC(=O)[C@@H]2CCCN2C(=O)[C@H](CCCNC(=N)N)NC(=O)[C@H](Cc2ccc(O)cc2)NC(=O)[C@H](C(C)C)NC(=O)[C@H](CCCNC(=N)N)NC(=O)CNC(=O)[C@H](CC(C)C)NC1=O [SEQ. ID. NO. 13]	22	130			55	0.3		3800									
CSCC[C@@H]1NC(=O)CCSSC[C@@H](C(N)=O)NC(=O)[C@@H]2CCCN2C(=O)[C@H](CCCNC(=N)N)NC(=O)[C@H](Cc2ccc(O)cc2)NC(=O)[C@H](C(C)C)NC(=O)[C@H](CCCNC(=N)N)NC(=O)CNC(=O)[C@H](CC(C)C)NC1=O [SEQ. ID. NO. 15]	5	92		> 3000	47			500	~30	very weak ligand	3500	about 5 fold					
CSCC[C@@H]1NC(=O)[C@@H](NC(=O)[C@H](CCCNC(=N)N)NC(C)=O)CSSC[C@@H](C(N)=O)NC(=O)[C@@H]2CCCN2C(=O)[C@H](CCCNC(=N)N)NC(=O)[C@H](Cc2ccc(O)cc2)NC(=O)[C@H](C(C)C)NC(=O)[C@H](CCCNC(=N)N)NC(=O)[C@H](CC2CCCCC2)NC(=O)[C@H](CC(C)C)NC1=O [SEQ. ID. NO. 19]	0.25	76			74			11			55		poorly activated both receptors	poorly activated both receptors			
CSCC[C@@H]1NC(=O)[C@@H](NC(=O)[C@H](CCCNC(=N)N)NC(C)=O)CSSC[C@@H](C(N)=O)NC(=O)[C@@H]2CCCN2C(=O)[C@H](CCCNC(=N)N)NC(=O)[C@H](Cc2ccc(O)cc2)NC(=O)[C@H](C(C)C)NC(=O)[C@H](CCCNC(=N)N)NC(=O)[C@@H]2CCCN2C(=O)[C@H](CC(C)C)NC1=O [SEQ. ID. NO. 22]		10			13			5			3500		virtually inactive at micromolar concentrations	virtually inactive at micromolar concentrations	> 10000		
CSCC[C@@H]1NC(=O)[C@@H](NC(=O)[C@H](CCCNC(=N)N)NC(C)=O)CSSC[C@@H](C(N)=O)NC(=O)[C@@H]2CCCN2C(=O)[C@H](CCCNC(=N)N)NC(=O)[C@H](Cc2ccc(O)cc2)NC(=O)[C@H](C(C)C)NC(=O)[C@H](CCCNC(=N)N)NC(=O)[C@H](CCCCN)NC(=O)[C@H](CC(C)C)NC1=O [SEQ. ID. NO. 24]	1	43			40			86	300		1460					300	
CSCC[C@@H]1NC(=O)[C@@H](NC(=O)[C@H](CCCNC(=N)N)NC(C)=O)CSSC[C@@H](C(N)=O)NC(=O)[C@@H]2CCCN2C(=O)[C@H](CCCNC(=N)N)NC(=O)[C@H](Cc2ccc(O)cc2)NC(=O)[C@H](C(C)C)NC(=O)[C@H](CCCNC(=N)N)NC(=O)[C@H](CC(N)=O)NC(=O)[C@H](CC(C)C)NC1=O [SEQ. ID. NO. 25] (HELM PEPTIDE1{[ac].R.C.M.L.N.R.V.Y.R.P.C.[am]}$PEPTIDE1,PEPTIDE1,3:R3-12:R3$$$V2.0)	4.7	126			86	0.28		1800							51		
CSCC[C@@H]1NC(=O)[C@@H](NC(=O)[C@H](CCCNC(=N)N)NC(C)=O)CSSC[C@@H](C(N)=O)NC(=O)[C@@H]2CCCN2C(=O)[C@H](CCCNC(=N)N)NC(=O)[C@H](Cc2ccc(O)cc2)NC(=O)[C@H](C(C)C)NC(=O)[C@H](CCCNC(=N)N)NC(=O)[C@H](CO)NC(=O)[C@H](CC(C)C)NC1=O [SEQ. ID. NO. 26] (HELM PEPTIDE1{[ac].R.C.M.L.S.R.V.Y.R.P.C.[am]}$PEPTIDE1,PEPTIDE1,3:R3-12:R3$$$V2.0)	0.7	120			87			100			55						
CSCC[C@@H]1NC(=O)[C@@H](NC(=O)[C@@H](CCCNC(=N)N)NC(C)=O)CSSC[C@@H](C(N)=O)NC(=O)[C@@H]2CCCN2C(=O)[C@H](CCCNC(=N)N)NC(=O)[C@H](Cc2ccc(O)cc2)NC(=O)[C@H](C(C)C)NC(=O)[C@H](CCCNC(=N)N)NC(=O)[C@H](CC(N)=O)NC(=O)[C@H](CC(C)C)NC1=O [SEQ. ID. NO. 29] (HELM PEPTIDE1{[ac].[dR].C.M.L.N.R.V.Y.R.P.C.[am]}$PEPTIDE1,PEPTIDE1,3:R3-12:R3$$$V2.0)	150	120			20	0.5		6600					activated hMCH-1R almost as efficiently as Ac-hMCH(6-16)NH2				about 150 fold
CSCC[C@@H]1NC(=O)[C@@H](NC(=O)[C@@H](CCCNC(=N)N)NC(C)=O)CSSC[C@@H](C(N)=O)NC(=O)[C@@H]2CCCN2C(=O)[C@H](CCCNC(=N)N)NC(=O)[C@H](Cc2ccc(O)cc2)NC(=O)[C@H](C(C)C)NC(=O)[C@H](CCCNC(=N)N)NC(=O)[C@H](CCC(N)=O)NC(=O)[C@H](CC(C)C)NC1=O [SEQ. ID. NO. 30] (HELM PEPTIDE1{[ac].[dR].C.M.L.Q.R.V.Y.R.P.C.[am]}$PEPTIDE1,PEPTIDE1,3:R3-12:R3$$$V2.0)		74		> 10000	11			230					activated hMCH-1R almost as efficiently as Ac-hMCH(6-16)NH2				about 150 fold
CCCC[C@@H]1NC(=O)[C@@H](NC(=O)[C@@H](CCCNC(=N)N)NC(C)=O)CSSC[C@@H](C(N)=O)NC(=O)[C@@H]2CCCN2C(=O)[C@H](CCCNC(=N)N)NC(=O)[C@H](Cc2ccc(O)cc2)NC(=O)[C@H](C(C)C)NC(=O)[C@H](CCCNC(=N)N)NC(=O)[C@H](CC(N)=O)NC(=O)[C@H](CC(C)C)NC1=O [SEQ. ID. NO. 31] (HELM PEPTIDE1{[ac].[dR].C.[Nle].L.N.R.V.Y.R.P.C.[am]}$PEPTIDE1,PEPTIDE1,3:R3-12:R3$$$V2.0)	23	130			23	0.28		5700					potent and selective hMCH-1R agonists				
